Data as given in the NIST ThermoML archive (doi:10.1016/j.tca.2006.10.008).
Several values for one entry are separate records, joined by “and”; a condition that tells them apart may be missing. Identical values can stand only once. ± gives the expanded uncertainty stated by the source.

Details: for vapor or sublimation pressure: Transpiration method; for Triple point temperature: DTA

F[B-](F)(F)F.[Cs+] [cesium tetrafluoroborate]
Crystal 1
Details	vapor or sublimation pressure
586 K	3.63e-05 ± 1.9e-06 kPa
592 K	4.17e-05 ± 2.2e-06 kPa
602 K	6.62e-05 ± 3.4e-06 kPa
608 K	8.43e-05 ± 4.3e-06 kPa
611 K	8.34e-05 ± 4.3e-06 kPa
623 K	0.0001414 ± 7.2e-06 kPa
627 K	0.0001287 ± 6.5e-06 kPa [middle of 4 runs]
634 K	0.0001822 ± 9.2e-06 kPa
648 K	0.0002611 ± 1.3e-05 kPa
654 K	0.0003472 ± 1.7e-05 kPa
666 K	0.0003572 ± 1.8e-05 kPa
682 K	0.0005593 ± 2.8e-05 kPa
692 K	0.0007727 ± 3.9e-05 kPa
703 K	0.0008954 ± 4.5e-05 kPa
705 K	0.000949 ± 4.8e-05 kPa

Details	Triple point temperature [K]
Crystal 2	442 ± 1

F[B-](F)(F)F.[Rb+] [rubidium tetrafluoroborate]
Crystal 1
Details	vapor or sublimation pressure
550 K	3.93e-05 ± 2.1e-06 kPa
555 K	5.32e-05 ± 2.8e-06 kPa
566 K	6.47e-05 ± 3.3e-06 kPa
576 K	9.73e-05 ± 5e-06 kPa
581 K	9.94e-05 ± 5.1e-06 kPa
592 K	0.0001394 ± 7.1e-06 kPa
602 K	0.0001641 ± 8.3e-06 kPa
613 K	0.0002173 ± 1.1e-05 kPa
622 K	0.0002867 ± 1.4e-05 kPa and 0.000287 ± 1.5e-05 kPa and 0.0002854 ± 1.4e-05 kPa
629 K	0.0003005 ± 1.5e-05 kPa
641 K	0.0004209 ± 2.1e-05 kPa
655 K	0.0005109 ± 2.6e-05 kPa
676 K	0.0007892 ± 4e-05 kPa
697 K	0.001082 ± 5.4e-05 kPa

Details	Triple point temperature [K]
Crystal 2	527 ± 1

F[B-](F)(F)F.[Na+] [sodium tetrafluoroborate]
vapor or sublimation pressure
Details	Crystal 1	Crystal 2
483 K	–	0.0002215 ± 1.1e-05 kPa
493 K	–	0.0003008 ± 1.5e-05 kPa
498 K	–	0.0003479 ± 1.7e-05 kPa
503 K	–	0.0003963 ± 2e-05 kPa
519 K	0.0006401 ± 3.2e-05 kPa	0.0006401 ± 3.2e-05 kPa
523 K	0.0008727 ± 4.4e-05 kPa	–
533 K	0.001184 ± 5.9e-05 kPa	–
544 K	0.001662 ± 8.3e-05 kPa	–
545 K	0.001475 ± 7.4e-05 kPa	–
554 K	0.001848 ± 9.2e-05 kPa [middle of 5 runs]	–
566 K	0.002561 ± 0.00013 kPa	–
575 K	0.002638 ± 0.00013 kPa	–
576 K	0.003027 ± 0.00015 kPa	–
580 K	0.003513 ± 0.00018 kPa	–
586 K	0.003838 ± 0.00019 kPa	–
602 K	0.003513 ± 0.00018 kPa	–
612 K	0.005891 ± 0.00029 kPa	–
622 K	0.008782 ± 0.00044 kPa	–
663 K	0.01582 ± 0.00079 kPa	–

Details	Triple point temperature [K]
Crystal 2	519 ± 1
